Our source for the IC50 values is patent publication US20240327417A1, “HETEROCYCLIC COMPOUNDS” (BeiGene Switzerland GmbH, priority 2021, published 2024).

The target in assay [1] is T1, Full length DGKζ (in-house protein M1-V929) (Homo sapiens, UniProt Q13574).
T1 construct: His (N); TEV cleavage site (N); made in house; host or cells: Sf9 insect cells (baculovirus, Bac-to-Bac)
Put plainly: Biochemical DGK IC50 assay (ADP-Glo, lipid micelle substrate), DGKζ. The following applies: 0.5 nM enzyme, 140 μM ATP, 80 μM DAG, 1 hour preincubation, 1 hour reaction, room temperature, read-out: IC50s for DGKζ. Summed up:
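In-house full-length human DGKζ, baculovirus-expressed in Sf9 cells, was assayed with a DAG/PS lipid micelle substrate at room temperature. Buffer was 50 mM HEPES, 10 mM MgCl2, 0.01% BSA, 0.1 mM Na3VO4, 0.005% Tween-20, 0.01 mM CaCl2, with final compound 1.55˜10000 nM or 23.3˜150000 nM.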

Assay [2] addresses T2, Full length DGKα (D21-10BG, SignalChem) (Homo sapiens, UniProt P23743).
T2 construct: Full length DGKα (D21-10BG, SignalChem); purchased SignalChem D21-10BG
The experiment in a line: Biochemical DGK IC50 assay (ADP-Glo, lipid micelle substrate), DGKα. The settings on record: 7.5 nM enzyme, 140 μM ATP, 80 μM DAG, 1 hour preincubation, 1 hour reaction, room temperature, read-out: IC50s for DGKα. Summed up: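 Full-length enzyme was assayed by ADP-Glo on DAG/PS lipid micelles at room temperature in HEPES/MgCl2/CaCl2 buffer with BSA, Na3VO4 and Tween-20, using a 1 h reaction and luminescence read-out.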

T1 sequence (Q13574 1-929 isoform Q13574-4): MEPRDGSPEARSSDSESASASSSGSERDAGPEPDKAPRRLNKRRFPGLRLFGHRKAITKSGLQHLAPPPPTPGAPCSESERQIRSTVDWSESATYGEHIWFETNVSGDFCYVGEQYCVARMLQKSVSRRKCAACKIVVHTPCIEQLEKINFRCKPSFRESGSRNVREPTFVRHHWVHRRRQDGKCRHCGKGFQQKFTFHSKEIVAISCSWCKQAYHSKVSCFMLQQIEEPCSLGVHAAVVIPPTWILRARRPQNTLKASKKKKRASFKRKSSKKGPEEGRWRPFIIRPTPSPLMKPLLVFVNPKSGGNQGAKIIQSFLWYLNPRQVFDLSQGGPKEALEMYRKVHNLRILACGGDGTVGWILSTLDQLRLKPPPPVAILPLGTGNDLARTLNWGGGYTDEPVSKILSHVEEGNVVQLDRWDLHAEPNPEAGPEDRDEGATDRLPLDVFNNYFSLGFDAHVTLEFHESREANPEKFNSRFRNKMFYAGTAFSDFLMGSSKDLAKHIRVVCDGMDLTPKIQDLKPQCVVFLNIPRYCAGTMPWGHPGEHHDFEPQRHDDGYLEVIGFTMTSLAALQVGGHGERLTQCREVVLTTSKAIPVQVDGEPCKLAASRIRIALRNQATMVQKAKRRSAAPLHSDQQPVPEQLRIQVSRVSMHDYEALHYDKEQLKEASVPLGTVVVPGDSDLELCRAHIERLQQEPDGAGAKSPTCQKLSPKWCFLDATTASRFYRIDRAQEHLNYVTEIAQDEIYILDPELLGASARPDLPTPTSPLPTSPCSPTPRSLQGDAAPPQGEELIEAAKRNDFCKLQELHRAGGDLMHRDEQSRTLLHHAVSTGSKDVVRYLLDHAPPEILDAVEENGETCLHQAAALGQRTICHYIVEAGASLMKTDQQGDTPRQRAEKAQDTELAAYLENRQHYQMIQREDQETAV
T2 sequence (P23743 whole entry): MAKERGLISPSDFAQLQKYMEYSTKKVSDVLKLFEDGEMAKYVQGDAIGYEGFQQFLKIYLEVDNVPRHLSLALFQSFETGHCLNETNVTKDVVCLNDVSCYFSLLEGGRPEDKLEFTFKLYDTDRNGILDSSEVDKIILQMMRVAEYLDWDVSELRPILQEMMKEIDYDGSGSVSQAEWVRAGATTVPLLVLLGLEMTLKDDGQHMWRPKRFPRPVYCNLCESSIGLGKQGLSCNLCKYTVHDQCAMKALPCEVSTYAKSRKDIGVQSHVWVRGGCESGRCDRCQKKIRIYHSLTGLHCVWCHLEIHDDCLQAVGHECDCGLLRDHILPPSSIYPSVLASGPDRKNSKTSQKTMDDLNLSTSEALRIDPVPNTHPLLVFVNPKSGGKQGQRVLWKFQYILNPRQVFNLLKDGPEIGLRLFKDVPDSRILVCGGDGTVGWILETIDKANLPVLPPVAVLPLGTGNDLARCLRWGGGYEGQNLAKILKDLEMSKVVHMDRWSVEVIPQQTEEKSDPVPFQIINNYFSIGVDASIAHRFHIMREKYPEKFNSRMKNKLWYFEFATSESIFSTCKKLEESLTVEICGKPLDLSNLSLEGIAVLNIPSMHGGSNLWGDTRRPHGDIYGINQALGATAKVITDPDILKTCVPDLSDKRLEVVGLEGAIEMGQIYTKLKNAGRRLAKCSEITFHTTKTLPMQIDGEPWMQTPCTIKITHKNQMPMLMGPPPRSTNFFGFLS

Regarding `CC[C@H]1CN(C(C)c2ccc3ncsc3c2)[C@H](CC)CN1c1cc(=O)n(C)n2cc(CC#N)nc12` (stereo partly drawn) [Compound A53, 2-(8-((2S,5R)-4-(1-(benzo[d]thiazol-6-yl)ethyl)-2,5-diethylpiperazin-1-yl)-5-methyl-6-oxo-5,6-dihydroimidazo[1,2-b]pyridazin-2-yl)acetonitrile], the IC50 came out at 6.5 nM in assay [1] and 24 nM in assay [2].
`CC[C@@H]1CN(c2cc(=O)n(C)n3cc(CC#N)nc23)[C@@H](C)CN1C(C)c1ccc2nc(C)sc2c1` (stereo partly drawn) [Compound A55, 2-(8-((2S,5R)-5-ethyl-2-methyl-4-(1-(2-methylbenzo[d]thiazol-6-yl)ethyl)piperazin-1-yl)-5-methyl-6-oxo-5,6-dihydroimidazo[1,2-b]pyridazin-2-yl)acetonitrile]: the figures for the IC50 in assay [1] and in assay [2] were 108 nM and 789 nM, respectively.
Taken in the same sequence, the figures for `CC[C@H]1CN(C(C)c2ccc3scnc3c2)[C@H](CC)CN1c1cc(=O)n(C)n2cc(CC#N)nc12` (stereo partly drawn) [Compound A65, 2-(8-((2S,5R)-4-(1-(benzo[d]thiazol-5-yl)ethyl)-2,5-diethylpiperazin-1-yl)-5-methyl-6-oxo-5,6-dihydroimidazo[1,2-b]pyridazin-2-yl)acetonitrile] were 18 nM and 36 nM.
On to `CC#CCc1cn2c(n1)c(N1C[C@@H](CC)N(C(C)c3ccc4nc(C)sc4c3)C[C@@H]1C)cc(=O)n2C` (stereo partly drawn) [Compound A69, 2-(but-2-yn-1-yl)-8-((2S,5R)-5-ethyl-2-methyl-4-(1-(2-methylbenzo[d]thiazol-6-yl)ethyl)piperazin-1-yl)-5-methylimidazo[1,2-b]pyridazin-6(5H)-one], for which the IC50 in assay [1] turned out to be 1440 nM; in assay [2], 263 nM.
With `CC[C@H]1CN(C(C)c2ccc3c(c2)OCO3)[C@H](CC)CN1c1cc(=O)n(C)n2cc(CC#N)nc12` (stereo partly drawn) [Compound A71, 2-(8-((2S,5R)-4-(1-(benzo[d][1,3]dioxol-5-yl)ethyl)-2,5-diethylpiperazin-1-yl)-5-methyl-6-oxo-5,6-dihydroimidazo[1,2-b]pyridazin-2-yl)acetonitrile], the IC50 worked out at 61 nM in assay [1] and 66 nM in assay [2].
As for `CC[C@H]1CN(C(C)c2ccc(OC)cc2)[C@H](CC)CN1c1cc(=O)n(C)n2cc(CC#N)nc12` (stereo partly drawn) [Compound A72, 2-(8-((2S,5R)-2,5-diethyl-4-(1-(4-methoxyphenyl)ethyl)piperazin-1-yl)-5-methyl-6-oxo-5,6-dihydroimidazo[1,2-b]pyridazin-2-yl)acetonitrile], the IC50 was determined as 76 nM in assay [1] and 23 nM in assay [2].
As to `CC[C@H]1CN(C(C)c2ccc3nc(C)sc3n2)[C@H](CC)CN1c1c(Br)c(=O)n(C)n2cc(CC#N)nc12` (stereo partly drawn) [Compound A83, 2-(7-bromo-8-((2S,5R)-2,5-diethyl-4-(1-(2-methylthiazolo[5,4-b]pyridin-5-yl)ethyl)piperazin-1-yl)-5-methyl-6-oxo-5,6-dihydroimidazo[1,2-b]pyridazin-2-yl)acetonitrile], the IC50 in assay [1] was above 10000 nM; in assay [2], 42600 nM.
Consider `CC[C@@H]1CN(c2cc(=O)n(C)n3cc(CC#N)nc23)[C@@H](C)CN1C(C)c1ccc2ccsc2n1` (stereo partly drawn) [Compound A86, 2-(8-((2S,5R)-5-ethyl-2-methyl-4-(1-(thieno[2,3-b]pyridin-6-yl)ethyl)piperazin-1-yl)-5-methyl-6-oxo-5,6-dihydroimidazo[1,2-b]pyridazin-2-yl)acetonitrile], for which the IC50 in assay [1] was 36 nM; in assay [2], 18 nM.
Regarding `CC[C@@H]1CN(c2cc(=O)n(C)n3cc(CC#N)nc23)[C@@H](C)CN1C(C)c1ccc2cc(C)sc2n1` (stereo partly drawn) [Compound A87, 2-(8-((2S,5R)-5-ethyl-2-methyl-4-(1-(2-methylthieno[2,3-b]pyridin-6-yl)ethyl)piperazin-1-yl)-5-methyl-6-oxo-5,6-dihydroimidazo[1,2-b]pyridazin-2-yl)acetonitrile], the IC50 came out at 11 nM in assay [1] and 112 nM in assay [2].
Turning to `CC[C@H]1CN(C(C)c2ccc(C3(F)CC3)cc2)[C@H](CC)CN1c1cc(=O)n(C)n2cc(CC#N)nc12` (stereo partly drawn) [Compound A88, 2-(8-((2S,5R)-2,5-diethyl-4-(1-(4-(1-fluorocyclopropyl)phenyl)ethyl)piperazin-1-yl)-5-methyl-6-oxo-5,6-dihydroimidazo[1,2-b]pyridazin-2-yl)acetonitrile], the IC50 in assay [1] is 39 nM; in assay [2] it was 72 nM.
`CC[C@H]1CN(C(CCOC)c2ccc3nc(C)sc3c2)[C@H](C)CN1c1cc(=O)n(C)n2cc(CC#N)nc12` (stereo partly drawn) [Compound A103, 2-(8-((2S,5R)-2-ethyl-4-(3-methoxy-1-(2-methylbenzo[d]thiazol-6-yl)propyl)-5-methylpiperazin-1-yl)-5-methyl-6-oxo-5,6-dihydroimidazo[1,2-b]pyridazin-2-yl)acetonitrile]: the values for the IC50 in assay [1] and in assay [2] were 138 nM and 701 nM, respectively.
For `CC[C@@H]1CN(c2cc(=O)n(C)n3cc(CC#N)nc23)[C@@H](C)CN1C(C)c1ccc2cc(F)sc2n1` (stereo partly drawn) [Compound A106, 2-(8-((2S,5R)-5-ethyl-4-(1-(2-fluorothieno[2,3-b]pyridin-6-yl)ethyl)-2-methylpiperazin-1-yl)-5-methyl-6-oxo-5,6-dihydroimidazo[1,2-b]pyridazin-2-yl)acetonitrile], the IC50 in assay [1] was determined as 96 nM; in assay [2], 26 nM.
Regarding `CC[C@H]1CN(C(C)c2ccc3nc(C)sc3c2)[C@H](CC)CN1c1c(C#N)c(=O)n(C)n2cc(CC#N)nc12` (stereo partly drawn) [Compound A111, 2-(cyanomethyl)-8-((2S,5R)-2,5-diethyl-4-(1-(2-methylbenzo[d]thiazol-6-yl)ethyl)piperazin-1-yl)-5-methyl-6-oxo-5,6-dihydroimidazo[1,2-b]pyridazine-7-carbonitrile], the IC50 in assay [1] amounted to 132 nM; in assay [2] it was 575 nM.
For `CC[C@H]1CN(C(C)c2ccc3ncsc3n2)[C@H](CC)CN1c1c(C#N)c(=O)n(C)n2cc(CC#N)nc12` (stereo partly drawn) [Compound A114, 2-(cyanomethyl)-8-((2S,5R)-2,5-diethyl-4-(1-(thiazolo[5,4-b]pyridin-5-yl)ethyl)piperazin-1-yl)-5-methyl-6-oxo-5,6-dihydroimidazo[1,2-b]pyridazine-7-carbonitrile], the IC50 in assay [1] came to 127 nM; in assay [2], 68 nM.
